From patent US20050267114A1, “Triazaspiro[5.5]undecane derivatives and drugs comprising the same as the active ingredient” (priority 2002, published 2005)
Structures can show the parent of a compound that is named as a salt.

Target: T1, human CCR5 (Homo sapiens, UniProt P51681)
T1 construct: expressed in transfected cells; host or cells: CHO-dhfr(-) cells stably transfected with plasmid pEF-BOS-bsr/hCCR5
Assay: Inhibition test on the binding of RANTES to CCR5 (RANTES-induced transient increase of Ca ion)
Assay type: cell-based
Settings: human RANTES 10 nM; CCR5/CHO cell; Ca2+ transient increase
Experimental: (1) Isolation of Human CCR5 Gene
Human placental cDNA was prepared using Marathon cDNA amplification kit (Clontech). PCR primers hCCR5Xbal-F1:
Using the human placental cDNA as the template and using Ex Taq (Takara), PCR reaction (2 minutes at 95° C.→(30 seconds at 95° C., 45 seconds at 60° C., 1 minute at 72° C.)×35 times) was carried out. The thus amplified PCR product was subjected to a 1% agarose gel electrophoresis, purified using QIAquick Gel Extraction Kit (QUIAGEN) and then digested with a restriction enzyme XbaI. The digested fragments were ligated to an expression vector pEF-BOS-bsr using DNA Ligation Kit Ver. 2 (Takara) and transformed into Escherichia coli DH5a. […]
The thus established human CCR5 stably over-expressing CHO cell (CCR5/CHO cell) was suspended in Ham's F-12 medium containing FBS (10%) and dispensed in […] portions into a 96 well plate. […] Transient increase in the intracellular Ca^2+ concentration induced by the human RANTES was measured using a Ca^2+ detector for 96 well use (Hamamatsu Photonics), and inhibition ratio (%) of the test compound was calculated by the following calculation formula. Inhibition ratio=(Ec−Ea)/Ec×100 • Ec: measured value of Ca^2+ transient increase by RANTES • Ea: measured value of Ca^2+ transient increase by RANTES when a test compound was added.

T1 sequence (P51681 whole entry): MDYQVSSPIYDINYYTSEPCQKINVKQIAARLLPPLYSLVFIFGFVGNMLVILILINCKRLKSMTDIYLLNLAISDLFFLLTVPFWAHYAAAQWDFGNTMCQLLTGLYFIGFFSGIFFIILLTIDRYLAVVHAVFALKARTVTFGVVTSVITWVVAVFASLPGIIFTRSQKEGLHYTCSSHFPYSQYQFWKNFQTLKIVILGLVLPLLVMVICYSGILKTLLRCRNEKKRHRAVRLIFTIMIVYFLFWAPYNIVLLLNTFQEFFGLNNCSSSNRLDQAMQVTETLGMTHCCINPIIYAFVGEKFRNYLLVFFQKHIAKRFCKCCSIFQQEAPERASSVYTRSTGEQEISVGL

## CCCCN1C(=O)[C@@H]([C@H](O)C(CC)CC)NC(=O)C12CCN(Cc1ccc(Cc3ccc(C(=O)NC)cc3Cl)cc1)CC2 [Example 3(179), (3R)-1-butyl-2,5-dioxo-3-((1R)-1-hydroxy-2-ethylbutyl)-9-(4-(4-methylaminocarbonyl-2-chlorophenylmethyl)phenylmethyl)-1,4,9-triazaspiro[5.5]undecane hydrochloride]
  IC50: 10 nM
